test system: apolipoprotein B; assay: Apolipoprotein B (apo B) Inhibition Test; format: cell-based, human; conditions: HepG2-cells, overnight at 37° C., radioactively labelled leucine, double immunoprecipitation; read-out: IC50 (concentration of the drug needed to reduce apoB secretion to 50% of the control)
Experimental: Cultured human liver cells (HepG2-cells), which synthesize and secrete low-density lipoproteins, were incubated overnight at 37° C. in a liquid medium containing radioactively labelled leucine. Thus radioactively labelled leucine was incorporated into the apolipoprotein B. The liquid medium was decanted and the apolipoprotein B was isolated by means of a double immunoprecipitation, i.e. first an apolipoprotein B-specific antibody (antibody1) was added to the liquid medium and subsequently a second antibody (antibody2) was added which binds specifically to the apoB-antibody1 -complex. The thus formed apoB-antibody1 -antibody2 complex precipitated and was isolated by centrifuge. Quantification of the amount of apolipoprotein B synthesized during the night resulted from measuring the radioactivity of the isolated complex. To measure the inhibiting activity of the test compound, that test compound was added to the liquid medium at different concentrations and the concentration of apolipoprotein B synthesized in the presence of a test compound (concentration apoB(after)) was compared to the concentration of apolipoprotein B which was synthesized in the absence of the test compound (concentration apoB(control)). For each experiment the inhibition of apolipoprotein-B formation was expressed as
% inhibition=100×(1-concentration of apoB(after)/concentration
When more experiments were carried out for the same concentration, the median value of the inhibition calculated for these experiments was calculated. IC50 -values (concentration of the drug needed to reduce apoB secretion to 50% of the control) were also computed.

IC50 | Compound
300 nM | CCC(C)n1cnn(-c2ccc(N3CCN(c4ccc(OCC5COC(CCn6cncn6)(c6ccc(F)cc6F)O5)cc4)CC3)cc2)c1=O (stereo not shown) [Compound 26]

same assay, conditions: Homo sapiens, HepG2-cells, overnight at 37° C., radioactively labelled leucine, double immunoprecipitation; read-out: IC50 (concentration of the drug needed to reduce apoB secretion to 50% of the control)

IC50 | Compound
1000 nM | CCCn1c(C)nn(-c2ccc(N3CCN(c4ccc(OC[C@H]5CO[C@](Cn6ccnc6)(c6ccc(Cl)cc6Cl)O5)cc4)CC3)cc2)c1=O (relative stereo) [Compound 4]
630 nM | CC(C)n1cnn(-c2ccc(N3CCN(c4ccc(OC[C@H]5CO[C@](Cn6ccnc6)(c6ccc(Cl)cc6Cl)O5)cc4)CC3)cc2)c1=O (relative stereo) [Compound 7]
910 nM | CC(C)n1cnn(-c2ccc(N3CCN(c4ccc(OC[C@H]5CO[C@](Cn6cncn6)(c6cccc7ccccc67)O5)cc4)CC3)cc2)c1=O (relative stereo) [Compound 24]
270 nM | CCC(C)n1cnn(-c2ccc(N3CCN(c4ccc(OCC5COC(CCn6cncn6)(c6ccc(Cl)cc6)O5)cc4)CC3)cc2)c1=O (stereo not shown) [Compound 27]
230 nM | CCC(C)n1cnn(-c2ccc(N3CCN(c4ccc(OCC5COC(CCn6cncn6)(c6ccc(F)cc6F)O5)cc4)CC3)cc2)c1=O (stereo not shown) [Compound 25]
720 nM | CC(C)n1cnn(-c2ccc(N3CCN(c4ccc(OC[C@H]5CO[C@](Cn6cncn6)(c6ccc(Cl)cc6Cl)O5)cc4)CC3)cc2)c1=O (relative stereo) [Compound 17]
290 nM | CC(C)n1cnn(-c2ccc(N3CCN(c4ccc(OC[C@H]5CO[C@](Cn6cccn6)(c6ccc(F)cc6F)O5)cc4)CC3)cc2)c1=O (relative stereo) [Compound 10]
560 nM | CC(C)n1cnn(-c2ccc(N3CCN(c4ccc(OC[C@H]5CO[C@](Cn6ccnc6)(c6cccc7ccccc67)O5)cc4)CC3)cc2)c1=O (relative stereo) [Compound 9]
860 nM | CCC(C)n1cnn(-c2ccc(N3CCN(c4ccc(OC[C@H]5CO[C@](Cn6cncn6)(c6ccc(F)cc6)O5)cc4)CC3)cc2)c1=O (stereo partly shown) [Compound 20]
170 nM | CCC(C)n1cnn(-c2ccc(N3CCN(c4ccc(OC[C@H]5CO[C@](Cn6cncn6)(c6ccc(F)cc6F)O5)cc4)CC3)cc2)c1=O (stereo partly drawn) [Compound 19, cis-2-[4-[4-[4-[[2-(2,4-difluorophenyl)-2-(1H-1,2,4-triazol-1yl-methyl)-1,3-dioxolan-4-yl]methoxy]phenyl]-1-piperazinyl]phenyl]-2,4-dihydro-4-(1-methylpropyl)-3H-1,2,4-triazol-3-one]
390 nM | CCC(C)n1cnn(-c2ccc(N3CCN(c4ccc(OC[C@H]5CO[C@](Cn6cncn6)(c6ccc(Cl)cc6Cl)O5)cc4)CC3)cc2)c1=O (stereo partly shown) [Compound 22]
340 nM | CC(C)n1cnn(-c2ccc(N3CCN(c4ccc(OC[C@H]5CO[C@](Cn6cncn6)(c6ccc(F)cc6F)O5)cc4)CC3)cc2)c1=O (relative stereo) [Compound 23]
